{
  "source": "patent US10064871B2",
  "about": "“Methods of treating skin disorders” (Biomimetix JV, LLC, priority 2014, dated 2018)",
  "key": {"[1]": {"system": "plaque-forming psoriasis", "assay": "Topical treatment of plaque-forming psoriasis on the legs of one subject", "assay_type": "in vivo, human", "description": "The therapeutic efficacy of MnTnBuOE-2-PyP^5+ when topically delivered was evaluated in a person with large areas of moderately severe plaque-forming psoriasis on upper and lower portions of both legs, with each involved area being approximately 10-20 cm in diameter. MnTnBuOE-2-PyP^5+ was formulated in LIPODERM® topical compounding cream base (available from the Professional Compounding Centers of America (PCCA)). at 0.01% and 0.1% concentrations producing a light brown cream which was applied b.i.d. to lesions on one extremity."}, "[2]": {"system": "psoriatic involvement of the scalp", "assay": "Topical treatment of psoriatic involvement of the scalp of one subject", "assay_type": "in vivo, human", "text": "A second subject with psoriatic involvement of the scalp of moderate severity was topically treated with MnTnBuOE-2-PyP^5+0.1% in LIPODERM® cream base twice daily for 3 weeks."}, "[3]": {"settings": "0.01% and 0.1% in LIPODERM cream base, topical b.i.d., within 5 days"}},
  "data": [
    {"substance": "Manganese ortho tetrakis(N-n-butoxyethylpyridinium-2-yl)porphyrin [MnTnBuOE-2-PyP^5+]", "values": [
      {"measurement": "time to marked improvement", "setting": "[1]; 0.01% and 0.1% in LIPODERM cream base, topical b.i.d.", "result": "≤ 5", "unit": "days"},
      {"measurement": "area of remaining mild psoriatic reaction", "setting": "[1]; [3]", "result": "decrease in the area of remaining mild psoriatic reaction"},
      {"measurement": "clinical irritation", "setting": "[1]; [3]", "result": "marked decrease in clinical irritation"},
      {"measurement": "inflammation of lesions", "setting": "[1]; [3]", "result": "decreased inflammation"},
      {"measurement": "efficacy of 0.01% compared with 0.1% cream", "setting": "[1]; lesions treated with 0.01% and 0.1% in LIPODERM cream base", "result": "Equivalent efficacy"},
      {"measurement": "clinical improvement of psoriatic lesions", "setting": "[1]; person, moderately severe plaque psoriasis of legs, 0.01% and 0.1% in LIPODERM cream base, topical b.i.d.", "result": "Marked improvement"},
      {"measurement": "return of the psoriatic reaction", "setting": "[2]; 30 days after treatment stopped, 0.1% in LIPODERM cream base twice daily for 3 weeks", "result": "No return of the psoriatic reaction was observed"},
      {"measurement": "psoriatic scalp reaction after treatment", "setting": "[2]; person, moderate severity, 0.1% in LIPODERM cream base, topical twice daily for 3 weeks", "result": "Complete resolution"}
    ]}
  ]
}
